Paper PMC11527646, “Pharmacological blockade of the mast cell MRGPRX2 receptor supports investigation of its relevance in skin disorders” (Frontiers in Immunology, 2024)
Several values for one entry are separate records, joined by “and”; a condition that tells them apart may be missing. Equal values may be shown once. Entries after “also recorded” stand apart in the source; their conditions may differ.

Experiments:
[1] = system: human MRGPRX2 knock-in mice; experiment: Cpd 48/80-induced itch (scratching) behavioral model; type: in vivo, mouse; conditions: 3 mg/kg PO, Cpd 48/80 intradermal 3 h post-dose, scratching over 30 min
From the text: The generation and initial characterization of human MRGPRX2 knock-in (KI) mice has been previously reported ([15]). All experimental protocols were approved by the Animal Care and Use Committee at the Johns Hopkins University School of Medicine and studies conducted according to GSK’s Policy on the Care, Welfare and Treatment of Animals. All mice used for this study were 2- to 4-month old males and females (20–30 g) and randomized on body weight and sex using three groups of 18 animals per group.
On the day of the experiment, animals were allowed to acclimatize to the test chamber for 10 min prior to injection. Mice received a single PO dose of Compound B (or vehicle) as a suspension in 1% methylcellulose at a dose level of 3 mg/kg (dose volume 10 mL/kg). Scratching behavior was monitored over 30 min following a single intra-dermal injection of 10 μL of Cpd 48/80 (10 μg/mL) or vehicle (saline) at 3 h post-dose of the antagonist. A bout of scratching was defined as a hindpaw directed continuous scratching movement at the injection site. The scratching behavior scorer was blinded to treatment. […]
(§1) Figure 6 Oral treatment with the potent and selective MRGPRX2 antagonist, Compound B (3 mg/kg), blocks Cpd 48/80–induced itch response using human MRGPRX2 knock-in mice. […] Average ± SD blood-free concentration of antagonist measured at end of “itch” observation period was 19 ± 16 nM Compound B.

[2] = Blood-free concentration at end of itch observation period; type: in vivo, mouse; conditions: 3 mg/kg PO, average ± SD
Protocol: as §1
This study provides pharmacological evidence that MRGPRX2 is solely responsible for mediating an SP response in a human tissue, in this instance, skin. Finally, human MRGPRX2 knock-in mice were used to provide initial proof of target engagement of MRGPRX2 antagonists in the skin using an established behavioral scratching model.

[3] = system: wild-type mice (C57BL6J strain); experiment: Cpd 48/80-induced itch behavioral study in wild-type mice; type: in vivo, mouse
Protocol: On the day of the experiment, animals were allowed to acclimatize to the test chamber for 10 min prior to injection. Mice received a single PO dose of Compound B (or vehicle) as a suspension in 1% methylcellulose at a dose level of 3 mg/kg (dose volume 10 mL/kg). Scratching behavior was monitored over 30 min following a single intra-dermal injection of 10 μL of Cpd 48/80 (10 μg/mL) or vehicle (saline) at 3 h post-dose of the antagonist. A bout of scratching was defined as a hindpaw directed continuous scratching movement at the injection site. The scratching behavior scorer was blinded to treatment.
Supplemental Figure 3: Oral treatment with the potent and selective human MRGPRX2 […]
type mice. The itch behavioral study for wild-type mice (C57BL6J strain) was performed the same way as descripted in the Methods section as for human MRGPRX2 knock-in mice. Compound 48/80 […]
control (18.4 +/- 3.8, n=7) mice (mean +/- SEM; *P < 0.05, Student's t test). As expected, no effect on the scratching behavior (39.8 +/- 12.6, n=6; P=0.795) was observed by oral administration of Compound B to the Compound 48/80 treated mice. […]

[4] = Pharmacokinetic profile
[5] = molecular target: T1, MRGPRX2 (Homo sapiens, UniProt Q96LB1); experiment: Substance P-stimulated tryptase release from freshly isolated human skin mast cells; type: cell-based; parameters: human mast cells expressing endogenous MRGPRX2; endogenous in cells; […]; conditions: read-out: pIC50, inhibition of Substance P-stimulated tryptase release (converted)
T1 sequence (Q96LB1 1-330): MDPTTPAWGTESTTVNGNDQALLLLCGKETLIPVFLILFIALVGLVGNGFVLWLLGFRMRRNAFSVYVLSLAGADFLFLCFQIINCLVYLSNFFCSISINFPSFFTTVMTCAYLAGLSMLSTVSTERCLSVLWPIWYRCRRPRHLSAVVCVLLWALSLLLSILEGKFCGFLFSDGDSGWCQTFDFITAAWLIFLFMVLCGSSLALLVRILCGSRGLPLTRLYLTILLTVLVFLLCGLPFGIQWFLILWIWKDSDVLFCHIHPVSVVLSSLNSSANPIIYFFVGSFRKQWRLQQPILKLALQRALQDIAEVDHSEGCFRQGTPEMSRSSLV
Protocol: Tissue was processed, removing adipose and cutting into small segments. Epidermis was removed after incubation with dispase II (2 mg/mL; Sigma-Aldrich) [100 mL/50-cm^2 tissue, base buffer; Dulbecco’s Phosphate-buffered Saline (D-PBS) (Gibco, supplemented with Ca^2+/Mg^2+), amphotericin B (2.5 μg/mL), penicillin (100 units/mL)/streptomycin (100 μg/mL) (Sigma-Aldrich)] for 37°C for 2–4 h followed by 4°C overnight. The remaining dermis was homogenized into a uniform mass and digested with an enzyme cocktail [collagenase IV (10 mg/mL; Gibco), hyaluronidase I-S (5 mg/mL; Sigma), DNAse I (10 μg/ml; Roche)] in base buffer (supplemented with 10% FBS) in a shaking incubator at 37°C for 90 min. […]
For human primary skin mast cell degranulation experiments, both β-hexosaminidase and tryptase were measured. […] Plates were centrifuged, with supernatants collected and lysates generated [cell pellets lysed in 0.1% Tx100 (Sigma), in assay buffer], and then stored at −80°C for later quantification. β-Hexosaminidase activity assay was performed as already described. For tryptase quantification: The amount of total tryptase (α and β tryptase) was quantified using the ImmunoCap Tryptase Test ran on either a Phadia 100 or 250 Immunoassay Analyzer as per the manufacturer’s protocol. […]

## C[C@@H](C(=O)Nc1cnc(Oc2ccc(F)cc2F)cn1)N1CCC(F)(F)[C@@H](c2cc[n+]([O-])cc2)C1 [Compound B]
[1]
  Effect on Cpd 48/80-induced itch response: significant blockade; also recorded: completely block
[2]
  Blood-free concentration of antagonist: 19 ± 16 nM and 19 nM
[3]; 3 mg/kg oral, wild-type mice
  Effect on Cpd 48/80-induced scratching behavior: did not block; also recorded: no effect was observed
[3]; Compound B 3 mg/kg oral in Compound 48/80 treated wild-type mice, mean +/- SEM, n=6
  Scratching counts: 39.8 +/- 12.6
[4]
  In vivo PK profile: good in vivo PK profile
[4]; in vivo, po
  Oral bioavailability: good oral bioavailability
[5]
  IC50: 0.417 nM
